Test results as given in patent publication US7638556B2, “Freeze-dried product of N-[o-(p-pivaloyloxy benzenesulfonylamino)benzoyl]glycine monosodium salt tetra-hydrate and a process for the manufacture thereof” (Ono Pharmaceutical Co., Ltd., priority 2000, dated 2009).
Read-outs that look alike come from different tables or passages of the source.

Experiments:
elastase = molecular target: T1, elastase (Homo sapiens, UniProt P08246); conditions: cited from earlier work
T1 sequence (P08246 30-267): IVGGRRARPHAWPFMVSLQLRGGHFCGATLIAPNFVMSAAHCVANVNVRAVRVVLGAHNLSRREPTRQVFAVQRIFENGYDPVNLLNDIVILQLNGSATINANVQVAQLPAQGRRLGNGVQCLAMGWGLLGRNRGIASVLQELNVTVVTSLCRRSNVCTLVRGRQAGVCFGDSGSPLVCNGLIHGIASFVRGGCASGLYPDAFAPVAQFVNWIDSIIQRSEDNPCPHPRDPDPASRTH

[1] = solubility of compound (I) in water or ethanol; type: physicochemical
Experimental: However, compound (I) is hardly soluble in water or ethanol; the solubility is 0.4 mg/ml in water, and 6.0 mg/ml in ethanol. Therefore, by normal solvents it is difficult to prepare a clear solution for the process of a high-dosage freeze-dried product.
Compound (I) has, as shown above, a very low solubility; 0.4 mg/ml in water, 6.0 mg/ml in ethanol. In order to obtain a freeze-dried product to prepare a high-dosage product of this compound, it is necessary to improve the solubility.

[2] = prior freeze-dried product method using sodium carbonate and water; cited from earlier work
[3] = solubility in mixed solvent of ethanol and water by titration until completely dissolved (Example 1); type: physicochemical; conditions: thermodynamic from solid
Experimental: By the following method, the concentration of compound (I) was measured when compound (I) was completely dissolved in various ratios of mixed solvent comprising water and ethanol.
Above mixed solvent was titrated with various added volume for compound (I) and the mixture was vigorously stirred and was left alone for several minutes.
The above operation was done repeatedly until confirming that the solute was completely dissolved by visual recognition.
Solubility A was given by dividing the amount of solute (mg) with the volume of added solvent (ml) when the solute was completely dissolved; and solubility B was given by dividing the amount of solute with the volume of added solvent before the solute was completely dissolved (mg).
It is judged that the solubility of compound (I) to mixed solvent of ethanol and water is between solubility A and solubility B.

CC(C)(C)C(=O)Oc1ccc(S(=O)(=O)Nc2ccccc2C(=O)NCC(=O)[O-])cc1.[Na+] [compound (I), N-[o-(p-pivaloyloxybenzenesulfonylamino)benzoyl]glycine monosodium salt tetra-hydrate]
inhibitory activity against elastase (elastase): inhibitory activity against elastase
solubility ([1]; in water): 0.4 mg/mL
solubility ([1]; organic solvent or mixture, in ethanol): 6 mg/mL
solubility [2]: < 80 mg/mL
solubility ([3]; aqueous with cosolvent or surfactant or cyclodextrin, ratio of ethanol 10 vol %, read-out: solubility A): 0.83 mg/mL
solubility ([3]; aqueous with cosolvent or surfactant or cyclodextrin, ratio of ethanol 10 vol %, read-out: solubility B): 0.91 mg/mL
solubility ([3]; aqueous with cosolvent or surfactant or cyclodextrin, ratio of ethanol 15 vol %, read-out: solubility A): 0.91 mg/mL
solubility ([3]; aqueous with cosolvent or surfactant or cyclodextrin, ratio of ethanol 15 vol %, read-out: solubility B): 1 mg/mL
solubility ([3]; aqueous with cosolvent or surfactant or cyclodextrin, ratio of ethanol 20 vol %, read-out: solubility A): 1.43 mg/mL
solubility ([3]; aqueous with cosolvent or surfactant or cyclodextrin, ratio of ethanol 20 vol %, read-out: solubility B): 1.67 mg/mL
solubility ([3]; aqueous with cosolvent or surfactant or cyclodextrin, ratio of ethanol 25 vol %, read-out: solubility A): 1.67 mg/mL
solubility ([3]; aqueous with cosolvent or surfactant or cyclodextrin, ratio of ethanol 25 vol %, read-out: solubility B): 2 mg/mL
solubility ([3]; aqueous with cosolvent or surfactant or cyclodextrin, ratio of ethanol 30 vol %, read-out: solubility A): 100 mg/mL
solubility ([3]; aqueous with cosolvent or surfactant or cyclodextrin, ratio of ethanol 30 vol %, read-out: solubility B): 125 mg/mL
solubility ([3]; aqueous with cosolvent or surfactant or cyclodextrin, ratio of ethanol 40 vol %, read-out: solubility A): 125 mg/mL
solubility ([3]; aqueous with cosolvent or surfactant or cyclodextrin, ratio of ethanol 40 vol %, read-out: solubility B): 167 mg/mL
solubility ([3]; aqueous with cosolvent or surfactant or cyclodextrin, ratio of ethanol 50 vol %, read-out: solubility A): 167 mg/mL
solubility ([3]; aqueous with cosolvent or surfactant or cyclodextrin, ratio of ethanol 50 vol %, read-out: solubility B): 250 mg/mL
solubility ([3]; aqueous with cosolvent or surfactant or cyclodextrin, ratio of ethanol 60 vol %, read-out: solubility A): 167 mg/mL
solubility ([3]; aqueous with cosolvent or surfactant or cyclodextrin, ratio of ethanol 60 vol %, read-out: solubility B): 250 mg/mL
solubility ([3]; aqueous with cosolvent or surfactant or cyclodextrin, ratio of ethanol 70 vol %, read-out: solubility A): 125 mg/mL
solubility ([3]; aqueous with cosolvent or surfactant or cyclodextrin, ratio of ethanol 70 vol %, read-out: solubility B): 167 mg/mL
solubility ([3]; aqueous with cosolvent or surfactant or cyclodextrin, ratio of ethanol 80 vol %, read-out: solubility A): 125 mg/mL
solubility ([3]; aqueous with cosolvent or surfactant or cyclodextrin, ratio of ethanol 80 vol %, read-out: solubility B): 167 mg/mL
solubility ([3]; aqueous with cosolvent or surfactant or cyclodextrin, ratio of ethanol 90 vol %, read-out: solubility A): 50 mg/mL
solubility ([3]; organic solvent or mixture, mixed solvent ethanol/water=3.0/7.0~8.0/2.0 (v/v), read-out: solubility): ≥ 80 mg/mL
solubility ([3]; organic solvent or mixture, ratio of ethanol 90 vol %, read-out: solubility B): 55.6 mg/mL
solubility ([3]; organic solvent or mixture, ratio of ethanol 100 vol %, read-out: solubility A): 5 mg/mL
solubility ([3]; organic solvent or mixture, ratio of ethanol 100 vol %, read-out: solubility B): 5.56 mg/mL
solubility ([3]; water, ratio of ethanol 0 vol %, read-out: solubility A): 0.22 mg/mL
solubility ([3]; water, ratio of ethanol 0 vol %, read-out: solubility B): 0.23 mg/mL
